Experimental data reported in article PMC5430962, “Retro-inverso Urokinase Receptor Antagonists for the Treatment of Metastatic Sarcomas” (Scientific Reports, 2017).
[ ]: non-standard residue; d: D form. Aib = CC(C)(N)C(=O)O

Experiments:
[1] = tested on: GFP-Sarc cells on HUVEC monolayer; experiment: GFP-Sarc cell adhesion onto endothelium; assay type: cell-based, human; conditions: 10 nM
Method: GFP-tagged Sarc cells were seeded on an endothelial monolayer as previously described. Briefly, sterile round glass coverslips (12 mm in diameter) were coated with 1:8 diluted matrigel (Becton Dickinson). HUVEC (5 × 10^4 cells in 200 μL/well) were seeded onto matrigel and allowed to form a monolayer for ~24 hr at 37 °C, 5% CO2 prior to seeding GFP-Sarc cells (1 × 10^4 cells/well) suspended in complete endothelial medium plus diluents or 10 nM RI-3. At the indicated times, cell-associated fluorescence was assessed by reading cells with the fluorescence plate reader. In a subset of experiments, after 2 hr, cells were stained with rhodamine-conjugated phalloidin and green fluorescent Sarc cells were identified on multiple z-series collected at 0.20 µm intervals using a confocal microscope (Carl Zeiss).

[2] = tested on: Akt (Ser473) phosphorylation; experiment: Akt phosphorylation by Western blot in RBL-2H3/ETFR cells; assay type: cell-based, rat; conditions: 0 to 10 minutes
Method: (§1) RBL-2H3/ETFR grown to semi-confluence, were exposed to DMEM alone, 10 nM fMLF with/without 10 nM RI-3 at 37 °C in humidified air with 5% CO2. At the indicated times, cells were lysed in RIPA buffer and cell lysate protein content was measured by a colorimetric assay. Western blot analysis of AKT phosphorylation was performed as previously described using anti-phospho-Akt (Ser473) (pAKT) Ab (Cell Signaling) and anti-Akt mAb (R&D System). The effects of fMLF with/without 10 nM RI-3 were analyzed at the level of global kinase phosphorylation, using the dot-blot Proteome Profiler^TM Array Human PhosphoKinase Array Kit (R&D Systems), according to manufacturer’s instructions. Briefly, 300 µg of protein were applied on each membrane and the signals were detected as described for Western blot. The pixel density of each spot was measured using NIH Image 1.62 software. The intensity of positive control spots was used to normalize results between the four membranes. The intensity for each spot was then averaged over the duplicate spots.

FAK(Y397) = experiment: Phospho-kinase array, RBL-2H3/ETFR cells; assay type: cell-based, rat; conditions: 10 nM fMLF plus 10 nM peptide, 10 min
Method: as §1

Akt(S473) = experiment: Phospho-kinase array, RBL-2H3/ETFR cells; assay type: cell-based, rat; conditions: 10 nM fMLF plus 10 nM peptide, 10 min
Method: as §1

p38α(T180/Y182) = experiment: Phospho-kinase array, RBL-2H3/ETFR cells; assay type: cell-based, rat; conditions: 10 nM fMLF plus 10 nM peptide, 10 min
Method: as §1

Fgr(Y412) = experiment: Phospho-kinase array, RBL-2H3/ETFR cells; assay type: cell-based, rat; conditions: 10 nM fMLF plus 10 nM peptide, 10 min
Method: as §1

CREB(S133) = experiment: Phospho-kinase array, RBL-2H3/ETFR cells; assay type: cell-based, rat; conditions: 10 nM fMLF plus 10 nM peptide, 10 min
Method: as §1

[3] = tested on: ERK1/2(T202/Y204/T185/Y187); experiment: Phospho-kinase array, RBL-2H3/ETFR cells; assay type: cell-based, rat; conditions: 10 nM fMLF plus 10 nM peptide, 10 min
Method: as §1

GFP-tagged Sarc cells = experiment: Growth and spread of subcutaneous GFP-tagged Sarc tumors in nude mice; assay type: in vivo, Foxn1nu/nu female nude mice; conditions: five mice per group
Method: To evaluate the effect of RI-3 on tumor growth and vascularization, Sarc cells were injected, as a single-cell suspension (1 × 10^6 cells in 100 µl of sterile PBS, 97% viability), subcutaneously in the flanks of sixteen six-eight weeks old, Foxn1nu/nu female nude mice (Harlan). Animals were randomized into two 8-mice groups with the treatment group receiving 6 mg/kg RI-3 by intra-peritoneal injection every 24 hr, and the control group receiving an equivalent injected volume of vehicle (PBS) only. Time-dependent average weight was monitored every two days. The length and the width of tumors were measured at different time points with a calliper and volumes were calculated using the formula: ½ × (width)[2] × length (mm). After 10 days, blood samples (at least 500 µL/mouse) from the retro-orbital venous plexus of mice anesthetized with 1% isoflurane were collected using a heparinized capillary tube and processed for determination of the Circulating Tumor Cells (CTCs). Then, the animals were sacrificed, the excised tumors were fixed in buffered formalin and processed for paraffin sectioning. Tumor vascularization was assessed by counting vascular channels harbouring red blood cells on CD31 immuno-stained sections in 5 randomly chosen fields per section, in at least two sections per tumor at x 200 as described. Two additional experiments were carried out with the same experimental design by injecting GFP-tagged Sarc cells (1 × 10^6 cells/mouse) subcutaneously in the flanks of twenty-five six-eight weeks old, Foxn1nu/nu female nude mice (Harlan). Animals were treated with 6 mg/kg RI-3, 6 mg/kg RERF or vehicle by intra-peritoneal injection every 24 hr for 10 or 12 days. Tumor growth and the appearance of positive tumor lesions near tumors and in lungs were monitored as brightly visualized by GFP fluorescence with a MacroFluo fluorescence stereomicroscope (Leica). We searched for the presence of GFP-positive nodules on the entire surface of freshly isolated lungs. Lungs were also sliced at approximately 3-mm thickness to examine the parenchyma in depth, and the positive nodules were acquired at higher magnification.

Ac-[dY][dR][Aib][dR]-NH2 (SMILES CC(=O)N[C@H](Cc1ccc(O)cc1)C(=O)N[C@H](CCCNC(=N)N)C(=O)NC(C)(C)C(=O)N[C@H](CCCNC(=N)N)C(N)=O) [RI-3]
reduction of cell-associated fluorescence (adhesion to endothelium) ([1]; after 5 min): 72%
reduction of cell-associated fluorescence (adhesion to endothelium) ([1]; after 10 min): 50%
reduction of cell-associated fluorescence (adhesion to endothelium) ([1]; after 20 min): 20%
reduction of cell-associated fluorescence (adhesion to endothelium) ([1]; after 40 min): 22%
effect on fMLF-induced Akt phosphorylation ([2]; 10 nM fMLF with 10 nM peptide): consistently decreased
effect of peptide alone on Akt phosphorylation ([2]; 10 nM, no fMLF): did not affect Akt phosphorylation
reduction in fMLF-dependent phosphorylation of FAK(Y397) (FAK(Y397)): 30%
reduction in fMLF-dependent phosphorylation of Akt(S473) (Akt(S473)): 22%
reduction in fMLF-dependent phosphorylation of p38α(T180/Y182) (p38α(T180/Y182)): 21%
reduction in fMLF-dependent phosphorylation of Fgr(Y412) (Fgr(Y412)): 43%
reduction in fMLF-dependent phosphorylation of CREB(S133) (CREB(S133)): 42%
reduction in fMLF-dependent phosphorylation of ERK1/2(T202/Y204/T185/Y187) [3]: 25%
changes in body weight (GFP-tagged Sarc cells; 6 mg/Kg i.p. every day for 12 days): did not cause changes in body weight
lungs with GFP-positive nodules (MacroFluo) (GFP-tagged Sarc cells; 6 mg/Kg i.p. every day for 12 days, untreated 3/5): negative
volume of tumors after 12 days (GFP-tagged Sarc cells; 6 mg/Kg i.p. every day for 12 days, vehicle 678 +/− 169): 381 +/− 123 mm^3
animals with subcutaneous GFP-positive lesions distant at least one centimeter from the primary tumors (GFP-tagged Sarc cells; set-up experiment, 6 mg/Kg i.p. every day, sacrifice after 12 days, vehicle 4/5): 2/5
